In patent publication US9128079B2, “Methods of using lung or bronchial epithelial cells to identify bitter taste modulators” (The Coca-Cola Company, priority 2011, dated 2015):

Tests used:
16HBE cells [1] = experiment: FLIPR calcium flux assay, intracellular calcium release on tastant addition; format: cell-based, human; details: increasing concentrations of tastant, calcium-sensitive dye, FIG. 2
Protocol: Calcium flux assays were performed as previously described in Strachan et al., “Ribosomal S6 kinase 2 directly phosphorylates the 5-hydroxytryptamine 2A (5-HT2A) serotonin receptor, thereby modulating 5-HT2A signaling,” J Biol Chem 284:5557-5573 (2009). 16-HBE cells were trypsinized, counted, and seeded onto clear-bottomed 96 well plates (Greiner Bio-One; Monroe, N.C.) pre-coated with poly-D-lysine, at a density of […]. After a 24 hour incubation, media was removed and replaced with a Ca^2+ assay buffer (20 mM HEPES, lx HBSS, 2.5 mM probenecid, and Ca^2+ assay dye, pH 7.4) (FLIPR® Calcium Assay Kit; Molecular Device Corp, Sunnyvale, Calif.). After a 1-hour incubation at 37° C., during which the cells were allowed to take up the dye, fluorescence responses of cells were measured with a FLIPRTETRA (Molecular Device Corp; Sunnyvale, Calif.) device upon the addition of variable concentrations of tastant, or vehicle, in the presence of assay buffer (20 mM HEPES, pH 7.4, 1× Hanks Balanced Salt [Invitrogen; Carlsbad, Calif.] and 2.5 mM probenecid). After data acquisition, a subsequent addition of […] was injected into each well, and fluorescence was measured again. […] The cells were loaded with fluorescent calcium-sensitive dye, treated with a variety of tastants, and monitored for intracellular calcium release with a FLIPR imaging device.

16HBE cells [2] = experiment: GloSensor cAMP assay, inhibition of forskolin-stimulated cAMP production; format: cell-based, human; details: increasing concentrations, GloSensor luminescence, FIG. 3
Protocol: Also shown is that overexpression of the wildtype form of RGS21 blunts bitter signaling and increases cAMP levels. Inhibition of forskolin-stimulated cAMP production by treatment with indicated concentrations of denatonium-B was determined 24 hours post-transfection by detection of Promega's cAMP GloSensor-dependent luminescence. Twenty-four hours post-transfection, cells were re-plated on poly-D-lysine-treated, clear-bottom, white 384-well plates at a density of 15,000 cells/well. Forty-eight hours post-transfection, culture medium was aspirated and cells were washed once with assay medium (DMEM (without FBS or phenol), 15 mM HEPES pH 7.4) before being incubated for 2 hours with 20 ill/well of equilibration medium (assay medium with 4% GloSensor™ substrate (Promega; Madison, Wis.)). After two hours, 10 μl of 3× final concentration denatonium benzoate (diluted in 3 μM forskolin-containing assay medium) was added to each well and allowed to incubate for 10 minutes before GloSensor™ emission was read on a MicroBeta Plate Counter (PerkinElmer; Waltham, Mass.). Before plotting, luminescence counts were normalized to 100% maximal response for each condition to account for variability in GloSensor™ expression, transfection efficiency, and the exact number of cells per well.

CC[N+](CC)(CC(=O)Nc1c(C)cccc1C)Cc1ccccc1 [denatonium-B, denatonium benzoate]
intracellular calcium response of 16HBE cells (16HBE cells [1]): increase in intracellular calcium | intracellular cyclic AMP concentration in 16HBE cells (16HBE cells [2]): decreasing the concentration of intracellular cyclic AMP
